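Following 48 hours of exposure in 96-well plates, responses at five concentrations were used to interpolate endpoints linearly. Here, GI50 denotes the concentration required for 50% inhibition of growth.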 The source made the active and inactive calls. Rule as the data show it: active = GI50 up to about 1.1 µM and inactive = higher.
Legend:
Assay in all cases: NCI tumour cell line growth inhibition, 48 h
[1] = test system: K562
[2] = test system: NCI-H23
[3] = test system: NCI-H522
[4] = test system: HOP-92
[5] = test system: RPMI-8226
[6] = test system: OVCAR-4
[7] = test system: UACC-62
[8] = test system: IGROV-1
[9] = test system: SF-539
[10] = test system: OVCAR-3
[11] = test system: MOLT-4
[12] = test system: U-251
[13] = test system: SNB-75
[14] = test system: M14
[15] = test system: SNB-19
[16] = test system: EKVX
[17] = test system: TK-10
[18] = test system: OVCAR-5
[19] = test system: HCC 2998
[20] = test system: CCRF-CEM

Row | Compound | GI50 [1] | GI50 [2] | GI50 [3] | GI50 [4] | GI50 [5] | GI50 [6] | GI50 [7] | GI50 [8] | GI50 [9] | GI50 [10] | GI50 [11] | GI50 [12] | GI50 [13] | GI50 [14] | GI50 [15] | GI50 [16] | GI50 [17] | GI50 [18] | GI50 [19] | GI50 [20]
1 | Cc1cc(C)c(S(=O)(=O)N(CCCCN)OCCCN)c(C)c1 | 13.9 µM (inactive) | 26.9 µM (inactive) | 16.2 µM (inactive) | 19 µM (inactive) | 8.04 µM (inactive) | 17.5 µM (inactive) | 16.4 µM (inactive) | 13.6 µM (inactive) | 21.8 µM (inactive) | 18.4 µM (inactive) | 11.7 µM (inactive) | 15.4 µM (inactive) | 13.5 µM (inactive) | 18.7 µM (inactive) | 19.6 µM (inactive) | 16.4 µM (inactive) | 18 µM (inactive) | 19.5 µM (inactive) | 2.28 µM (inactive) | 15.7 µM (inactive)
2 | CCCCCCCCC(O)c1ccc(/C=C\C(O)CCCC(=O)O)s1 (centres undefined) | > 100 µM (inactive) | > 100 µM (inactive) | > 100 µM (inactive) | > 100 µM (inactive) | > 100 µM (inactive) | > 100 µM (inactive) | > 100 µM (inactive) | > 100 µM (inactive) | > 100 µM (inactive) | > 100 µM (inactive) | > 100 µM (inactive) | > 100 µM (inactive) | > 100 µM (inactive) | > 100 µM (inactive) | > 100 µM (inactive) | > 100 µM (inactive) | > 100 µM (inactive) | > 100 µM (inactive) | > 100 µM (inactive) | > 100 µM (inactive)
3 | O=[N+]([O-])c1cccc2nc3ccccc3c(NCCNCCO)c12 | 0.00427 µM (active) | 0.00146 µM (active) | 0.00109 µM (active) | 0.00365 µM (active) | 0.00383 µM (active) | 0.00335 µM (active) | 0.01 µM (active) | 0.00198 µM (active) | 0.0326 µM (active) | 0.00558 µM (active) | 0.00402 µM (active) | 0.0118 µM (active) | 0.0188 µM (active) | 0.011 µM (active) | 0.0349 µM (active) | 0.00853 µM (active) | 0.0385 µM (active) | 0.0109 µM (active) | 0.00217 µM (active) | 0.0158 µM (active)
4 | O=c1c(-c2ccc(O)cc2)coc2cc(O)cc(O)c12 [GENISTEIN] | > 100 µM (inactive) | > 100 µM (inactive) | 36.4 µM (inactive) | > 100 µM (inactive) | 77.8 µM (inactive) | > 100 µM (inactive) | > 100 µM (inactive) | 71.6 µM (inactive) | > 100 µM (inactive) |  | 40.4 µM (inactive) | > 100 µM (inactive) |  | > 100 µM (inactive) | 92 µM (inactive) | 63.1 µM (inactive) | > 100 µM (inactive) | > 100 µM (inactive) | > 100 µM (inactive) | > 10 µM (inactive)
5 | O=NN1CCN=C1c1ccc([N+](=O)[O-])cc1 | > 100 µM (inactive) | > 100 µM (inactive) | > 100 µM (inactive) | > 100 µM (inactive) | > 100 µM (inactive) | > 100 µM (inactive) | > 100 µM (inactive) | > 100 µM (inactive) | > 100 µM (inactive) | > 100 µM (inactive) | > 100 µM (inactive) | > 100 µM (inactive) | > 100 µM (inactive) | > 100 µM (inactive) | > 100 µM (inactive) |  | > 100 µM (inactive) | > 100 µM (inactive) | > 100 µM (inactive) | 
6 | C/C(=N\Nc1nc2ccccc2[nH]1)c1cccc[n+]1[O-] | > 100 µM (inactive) | > 100 µM (inactive) | > 100 µM (inactive) | 33.9 µM (inactive) | > 100 µM (inactive) | > 100 µM (inactive) | 87.1 µM (inactive) | 63.4 µM (inactive) | > 100 µM (inactive) | 37.6 µM (inactive) | > 100 µM (inactive) | 75 µM (inactive) |  | > 100 µM (inactive) | > 100 µM (inactive) | 3.03 µM (inactive) | 67.1 µM (inactive) | 8.91 µM (inactive) | 6.55 µM (inactive) | > 100 µM (inactive)
7 | CC1(O)OC(=O)C2=C1CCC1C2CCC2(C)C(O)CCC12 (centres undefined) | > 100 µM (inactive) | > 100 µM (inactive) | > 100 µM (inactive) | > 100 µM (inactive) | > 100 µM (inactive) | > 100 µM (inactive) | 46.3 µM (inactive) | > 100 µM (inactive) | > 100 µM (inactive) | > 100 µM (inactive) | > 10 µM (inactive) | > 100 µM (inactive) |  | > 100 µM (inactive) | > 100 µM (inactive) | > 100 µM (inactive) | > 100 µM (inactive) | > 100 µM (inactive) | > 100 µM (inactive) | > 100 µM (inactive)
8 | CC(NC(=O)C(C)NC(=O)C(N)CCP(C)(=O)O)C(=O)O (centres undefined) | > 100 µM (inactive) | > 100 µM (inactive) | > 100 µM (inactive) | > 100 µM (inactive) | > 100 µM (inactive) | > 100 µM (inactive) | > 100 µM (inactive) | > 100 µM (inactive) | > 100 µM (inactive) | > 100 µM (inactive) | > 100 µM (inactive) | > 100 µM (inactive) | > 100 µM (inactive) |  | > 100 µM (inactive) | > 100 µM (inactive) |  | > 100 µM (inactive) | > 100 µM (inactive) | > 100 µM (inactive)
9 | COc1ccc(/C=C2\CCNC2=O)cc1 | > 100 µM (inactive) | > 100 µM (inactive) | > 100 µM (inactive) | > 100 µM (inactive) | > 100 µM (inactive) | > 100 µM (inactive) | > 100 µM (inactive) | > 100 µM (inactive) | > 76.6 µM (inactive) | > 100 µM (inactive) | > 100 µM (inactive) | > 100 µM (inactive) | > 47.1 µM (inactive) |  | > 100 µM (inactive) | > 29.4 µM (inactive) |  | > 100 µM (inactive) | > 48.5 µM (inactive) | > 100 µM (inactive)
10 | COc1ccc2c3c1OC1C(F)C=CC4(O)C(C2)NCCC314 (centres undefined) | 0.805 µM (active) | 1.92 µM (inactive) | 0.407 µM (active) | 2.87 µM (inactive) | 0.834 µM (active) | 1.95 µM (inactive) | 3.37 µM (inactive) | 4.81 µM (inactive) |  | 1.87 µM (inactive) | 0.887 µM (active) | 2.2 µM (inactive) | 2.06 µM (inactive) | 1.65 µM (inactive) | 1.81 µM (inactive) | 2.49 µM (inactive) | 3.51 µM (inactive) | 3.2 µM (inactive) | 3.18 µM (inactive) | 0.348 µM (active)
11 | COc1ccccc1Cc1nc(-c2ccccc2)nn(C2OC(COC(C)=O)C(OC(C)=O)C(OC(C)=O)C2OC(C)=O)c1=S (centres undefined) | > 58.3 µM (inactive) | 11.2 µM (inactive) | 6.5 µM (inactive) | 7.31 µM (inactive) | 21.8 µM (inactive) | 3.31 µM (inactive) | 14.5 µM (inactive) | 31.1 µM (inactive) | 9.14 µM (inactive) | 21.6 µM (inactive) | > 60 µM (inactive) | 13.2 µM (inactive) | 3.08 µM (inactive) |  | 5.75 µM (inactive) | 25.1 µM (inactive) |  | > 100 µM (inactive) | > 24.8 µM (inactive) | > 100 µM (inactive)
12 | Cc1nc2c(sc(=S)n2-c2ccccc2)c(=O)[nH]1 | > 100 µM (inactive) | > 100 µM (inactive) | > 100 µM (inactive) | > 100 µM (inactive) | > 100 µM (inactive) |  | > 100 µM (inactive) | > 100 µM (inactive) | > 100 µM (inactive) | > 100 µM (inactive) | > 100 µM (inactive) | > 100 µM (inactive) |  |  | > 100 µM (inactive) |  | > 100 µM (inactive) | > 100 µM (inactive) | > 100 µM (inactive) | > 100 µM (inactive)
13 | O=C(NC(Cc1ccc(I)cc1)C(=O)O)c1ccc(I)cc1 (centres undefined) | 59.6 µM (inactive) | > 80.2 µM (inactive) | 38.8 µM (inactive) | 66.7 µM (inactive) | 40.3 µM (inactive) | 51.4 µM (inactive) | 29.6 µM (inactive) | > 24.4 µM (inactive) | > 74 µM (inactive) | 41.5 µM (inactive) | 51.5 µM (inactive) | 62.1 µM (inactive) | 21.2 µM (inactive) |  | 54.7 µM (inactive) | > 51.2 µM (inactive) |  | > 100 µM (inactive) | > 41.7 µM (inactive) | 48.2 µM (inactive)
14 | Clc1ccc(C(SCc2ccccc2)SCc2ccccc2)cc1 | > 10 µM (inactive) | > 10 µM (inactive) | > 10 µM (inactive) | > 10 µM (inactive) | > 10 µM (inactive) | > 10 µM (inactive) | > 10 µM (inactive) | > 10 µM (inactive) | > 10 µM (inactive) | > 10 µM (inactive) | > 10 µM (inactive) | > 10 µM (inactive) | > 10 µM (inactive) | > 10 µM (inactive) | > 10 µM (inactive) | > 10 µM (inactive) | > 10 µM (inactive) |  | > 10 µM (inactive) | > 10 µM (inactive)
15 | CC(=O)OCC1OC(N2C(=O)NC(=O)C3C=C4CCCCC4=CC32)C(OC(C)=O)C1OC(C)=O (centres undefined) | > 100 µM (inactive) | > 100 µM (inactive) | > 100 µM (inactive) | > 100 µM (inactive) | > 100 µM (inactive) | > 100 µM (inactive) | > 100 µM (inactive) | > 100 µM (inactive) | > 100 µM (inactive) | > 100 µM (inactive) | > 100 µM (inactive) | > 100 µM (inactive) |  | > 100 µM (inactive) | > 100 µM (inactive) | > 100 µM (inactive) | > 100 µM (inactive) | > 100 µM (inactive) | > 100 µM (inactive) | > 100 µM (inactive)

— ChEMBL document CHEMBL1201862, “PubChem BioAssay data set” (2004)
